Source: patent US6379670B1, “Methods for treatment of multiple sclerosis using peptide analogs of human myelin basic protein” (Neurocrine Biosciences, Inc., priority 1994, dated 2002)
Non-standard residues stand in square brackets, D forms with d. No end group written: not given here.

Tests used:
[1] = test system: peripheral blood mononuclear cells; test: Frequency of antigen-reactive T cells in PBMC of untreated MS patients and healthy donors (split-well); format: cell-based, human; set-up: mean frequency of antigen-reactive T cells / frequency of antigen-reactive T cells in healthy subjects / antigen-reactive T cells, % Positive: concentration or dose not given beside the values
Description: Immune response to the peptide analog was assessed by measuring the frequency of proliferating peripheral blood T cells using a split-well microtiter method (i.e., number of positive wells {Δ cpm >1000, stimulation index>3} divided by the total number of wells assayed). Peripheral blood mononuclear cells (PBMC) were isolated from venous blood by Ficoll-Hypaque density gradient centrifugation, washed twice and resuspended in complete tissue culture medium (Iscove's modification of Dulbecco's medium containing 10% heat-inactivated, pooled, human A-B serum, 2 mM L-glutamine, 100 U/ml penicillin/streptomycin and 50 μg/ml gentamycin). PBMC from each patient were seeded at 10^5/well in 96 well, U-bottom microtiter plates containing 25 μg/ml whole MBP, 10 μg/ml NBI-5788 or medium alone in a volume of 200 μl. Three days later supernatants were collected and frozen at −80° C. and fresh medium containing IL-2 (10 U/ml) was added. IL-2-containg medium was refreshed on Day 7 and Day 11. On Day 14, the frequency of antigen response was determined by the “split well” technique. Briefly, cells from one primary well were split into replicate experimental wells in the presence of 10^5 freshly isolated autologous, irradiated peripheral blood mononuclear cells (APCs): one containing the original antigen (25 μg/ml) and one without antigen. Two days later supernatants were collected and the wells pulsed with 1 µCi/well [^3H]-thymidine ([…]) for the final 18 hours of culture. ^3H-Thymidine uptake was measured in a beta counter. […] The association between T cell frequency and NBI-5788 treatment was evaluated by χ^2 contingency analysis.

[2] = test system: NBI-5788- or MBP-reactive TCL from MS patients; test: Cytokine secretion (IFN-γ, IL-5) by TCL from MS patients, ELISA; format: in vivo, human
Description: To more fully characterize the nature of the immune response generated following APL administration, proliferating NBI-5788- or MBP-reactive TCL were established from untreated or NBI-5788-treated MS patients. […] Levels of Th2 cytokine IL-5 and Th1 cytokine IFN-γ were measured in culture supernatants collected 48 hours after stimulation with the selecting antigen, either NBI-5788 or whole MBP. Cytokines produced by T cell lines were assayed by ELISA. To measure cytokine levels, a sandwich ELISA method was used as follows: Nunc Maxisorp microtiter plates (Nalge Nunc, Denmark) were coated with capture mAb (Pharmingen, San Diego, Calif.) at 2 μg/ml for IL-4, IL-10, IL-13 and IFN-γ or at 1 μg/ml for IL-5. The capture mAb was diluted with 0.1 M NaHCO3 dispensed on the plate and incubated at 4° C. overnight. Plates were then blocked for at least 30 minutes at RT with 1% BSA (Sigma, St. Louis, Mo.) for IL-4, IL-5, IL-10 and IL-13 or 1% casein (Sigma) for IFN-γ. Standards were serially diluted (1000-1 pg/ml for IL-4 and 4000-5.5 pg/ml for IL-5, IL-10, IL-13 and IFN-γ) in blocking buffer and added to the plate. Samples were diluted at least 1:2 in blocking buffer and added to the plate. The plates were incubated at room temperature for one hour. The plates were washed and the biotinylated detection mAb (Pharmingen) was added to the plates at 1 μg/ml for IL-5 and IFN-γ or 2 μg/ml for IL-4, L-10, and IL-13. The plates were incubated for 1.5 hours at RT. After washing the plates streptavidin-peroxidase (Pierce, Rockford, Ill.) was added at 1 μg/ml for IL-5, IL-10, and IL-13 or 2 μg/ml for IL-4 and IFN-γ. The plates were incubated for 20-30 minutes. After washing thoroughly, TMB (Calbiochem, San Diego, Calif.) was added and the color was allowed to develop. The reaction was stopped by 0.2N H2SO4 and absorbance at 450 nm was determined. The association between cytokine phenotype and NBI-5788 treatment was evaluated by χ^2 contingency analysis. Mean cytokine secretion levels were compared using MannWhitney U test for non-parametric data. Probability values≦0.05 were considered significant.

[3] = subject MS-2, untreated MS patient
[4] = subject MS-3, untreated MS patient
[5] = subject MS-7, untreated MS patient
[6] = subject MS-8, untreated MS patient
[7] = subject MS-9, untreated MS patient
[8] = subject MS-10, untreated MS patient
[9] = subject MS-11, untreated MS patient

Question: How did the “antigen-reactive T cells, Positive/total wells” value ([1]; Total of healthy donors) turn out when “MBP(83-99) (83E>a, 84N>K, 89F>L, and 91K>A) ([dA]KPVVHLFANIVTPRTP) [NBI-5788]” was run?
Answer: 0/96

Question: And the “antigen-reactive T cells, Positive/total wells” value ([1]; Total of untreated MS patients)?
Answer: 19/308

Question: What about the “antigen-reactive T cells, % Positive” value ([1]; healthy donor HD-1) of the same substance?
Answer: 0%

Question: What about the “antigen-reactive T cells, Positive/total wells” value ([1]; healthy donor HD-1) of the same substance?
Answer: 0/48

Question: What about the “antigen-reactive T cells, % Positive” value ([1]; healthy donor HD-2) of the same substance?
Answer: 0%

Question: What about the “antigen-reactive T cells, Positive/total wells” value ([1]; healthy donor HD-2) of the same substance?
Answer: 0/48

Question: And the “antigen-reactive T cells, % Positive” value [1, 3]?
Answer: 6.8%

Question: What about the “antigen-reactive T cells, Positive/total wells” value [1, 3] of the same substance?
Answer: 3/44

Question: And the “antigen-reactive T cells, % Positive” value [1, 4]?
Answer: 2.3%

Question: And the “antigen-reactive T cells, Positive/total wells” value [1, 4]?
Answer: 1/44

Question: What about the “antigen-reactive T cells, % Positive” value [1, 5] of the same substance?
Answer: 6.8%

Question: And the “antigen-reactive T cells, Positive/total wells” value [1, 5]?
Answer: 3/44

Question: What about the “antigen-reactive T cells, % Positive” value [1, 6] of the same substance?
Answer: 11.4%

Question: And the “antigen-reactive T cells, Positive/total wells” value [1, 6]?
Answer: 5/44

Question: And the “antigen-reactive T cells, % Positive” value [1, 7]?
Answer: 9.1%

Question: And the “antigen-reactive T cells, Positive/total wells” value [1, 7]?
Answer: 4/44

Question: And the “antigen-reactive T cells, % Positive” value [1, 8]?
Answer: 4.5%

Question: What about the “antigen-reactive T cells, Positive/total wells” value [1, 8] of the same substance?
Answer: 2/44

Question: What about the “antigen-reactive T cells, % Positive” value [1, 9] of the same substance?
Answer: 2.3%

Question: And the “antigen-reactive T cells, Positive/total wells” value [1, 9]?
Answer: 1/44

Question: What about the “frequency of antigen-reactive T cells in healthy subjects” value ([1]; two healthy subjects, MBP-reactive cells detected in one of two) of the same substance?
Answer: no NBI-5788-reactive T cells were detected

Question: What about the “mean frequency of antigen-reactive T cells” value ([1]; untreated MS patients (n=7)) of the same substance?
Answer: 6.2±1.3%

Question: And the “MBP-reactive TCL from APL-treated MS patients that secreted more IL-5 than IFN-γ” value ([2]; 13 of 23 TCL)?
Answer: 56%

Question: What about the “APL-reactive TCL from APL-treated MS patients that secreted more IL-5 than IFN-γ” value ([2]; 19 of 32 TCL) of the same substance?
Answer: 59%

Question: And the “change of mean IFN-γ secretion of MBP-reactive and APL-reactive T cell lines, APL-treated compared to non-treated MS patients” value ([2]; FIGS. 31A and 31B)?
Answer: significant (p<0.05) decrease

Question: What about the “cytokine phenotype of NBI-5788-reactive TCL from APL-treated versus untreated MS patients” value ([2]; secreting more IL-5 than IFN-γ) of the same substance?
Answer: more Th2-like

Question: And the “change of mean IL-5 secretion of TCL, APL-treated compared to non-treated MS patients” value ([2]; significant (p<0.05) for APL-reactive TCL, but not for MBP-reactive TCL)?
Answer: concomitant increase
